# Source: patent US20050100983A1, “Cell-free methods for identifying compounds that affect toll-like receptor 9 (TLR9) signaling” (Coley Pharmaceutical GmbH, priority 2003, published 2005)
# Legend:
# [1] = test system: mTLR9mut (D535→A and Y537→A); assay: NF-κB luciferase assay, HEK 293 cells transfected with mutated full length mTLR9; format: cell-based, murine; conditions: 1 μM CpG-DNA
# Experimental: FIG. 3D is a bar graph depicting activation of mTLR9- and mTLR9mut-transfected cells from FIG. 3C. Cells were stimulated with 1 μM CpG-DNA or 10 ng/ml of the TLR-independent stimulus 12-O-tetradecanoylphorbol 13-acetate (TPA) and subsequent NF-κB induction was analyzed. Activation is expressed as fold induction compared to no stimulation.
# Mutation. For mutation of wild-type mTLR9 amino acids D535 and Y537 to two alanines, the primers 5′-[…]-3′ (SEQ ID NO:5) and 5′-[…]-3′ (SEQ ID NO:6) were used to generate mTLR9-mut. A site-specific-mutagenesis kit from Stratagene (Amsterdam, Netherlands) was applied according to the manufacturer's protocol. All PCR fragments were sequenced and found error-free.
# NF-κB luciferase assay. For monitoring transient NF-κB activation, 3×10^6 HEK 293 cells were electroporated at 200 volt and 950 μF with 20 ng of a NF-κB luciferase reporter plasmid (kindly provided by Patrick Baeuerle, Munich, Germany) and 1 μg mTLR2 (kindly provided by Tularik, Inc., South San Francisco, USA), mTLR9, or mTLR9-mut expression plasmid. Cells were seeded at 10^5 cells per well and after overnight culture stimulated with 1 μM phosphorothioated CpG-DNA 1668 (SEQ ID NO:1), 1 μM non-CpG-DNA 1668GC (SEQ ID NO:3), 1 μg/ml Pam3CysK4 or 1 μg/ml PHCK4 for further 8 hours. […]
# murine TLR9 = conditions: read-out: concentration for half-maximal activation of murine TLR9; cited from earlier work
# [2] = target: T1, mTLR9ect (extracellular domain of murine TLR9 fused to human IgG1-Fc) (Mus musculus, UniProt Q9EQU3); assay: SPR biosensor analysis of mTLR9ect binding to immobilized CpG-DNA
# T1 construct: mTLR9ect (aa 1-816); made in house
# T1 sequence (Q9EQU3 26-816): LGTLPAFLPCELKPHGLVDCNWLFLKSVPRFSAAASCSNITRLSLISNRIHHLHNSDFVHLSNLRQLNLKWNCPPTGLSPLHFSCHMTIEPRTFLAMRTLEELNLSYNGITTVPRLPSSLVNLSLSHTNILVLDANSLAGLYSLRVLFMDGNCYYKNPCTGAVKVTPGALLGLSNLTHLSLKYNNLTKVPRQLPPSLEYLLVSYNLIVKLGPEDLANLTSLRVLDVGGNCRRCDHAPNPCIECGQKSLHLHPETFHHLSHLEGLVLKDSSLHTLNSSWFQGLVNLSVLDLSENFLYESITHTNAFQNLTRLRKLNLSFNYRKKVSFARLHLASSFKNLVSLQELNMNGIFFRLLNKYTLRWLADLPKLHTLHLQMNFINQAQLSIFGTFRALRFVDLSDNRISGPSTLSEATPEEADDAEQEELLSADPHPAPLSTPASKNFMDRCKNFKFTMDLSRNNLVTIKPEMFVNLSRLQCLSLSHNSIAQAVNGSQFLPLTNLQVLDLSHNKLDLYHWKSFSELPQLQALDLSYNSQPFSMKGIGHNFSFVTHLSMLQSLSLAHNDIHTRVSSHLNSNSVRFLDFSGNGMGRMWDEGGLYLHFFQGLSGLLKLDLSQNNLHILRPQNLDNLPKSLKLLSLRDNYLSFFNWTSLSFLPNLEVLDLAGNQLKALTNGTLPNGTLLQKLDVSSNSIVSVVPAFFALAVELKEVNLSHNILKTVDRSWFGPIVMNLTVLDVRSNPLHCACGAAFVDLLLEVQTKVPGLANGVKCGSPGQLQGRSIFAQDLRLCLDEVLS
# From the text: Protein. Recombinant fusion proteins consisting of the extracellular domain of Toll-like receptors mTLR9ect (aa 1-816), mTLR9ect-mut (see below) (aa 1-816), hTLR9ect (aa 1-815) and mTLR2ect (aa 1-587) fused to human IgG1-Fc were constructed by amplifying the corresponding extracellular domain and ligating the fragment in frame into a pcDNA3.1(−) (Invitrogen, Netherlands) vector containing the coding sequence for human IgG1-Fc. Fusion proteins were stably expressed in HEK 293 cells and purified from cell lysates by protein A affinity chromatography.
# SPR biosensor analysis. Real-time binding of TLR9 or TLR2 was measured by surface plasmon resonance biosensor technology using the BiaCore X system (Uppsala, Sweden). For analysis of TLR9 and TLR2 interaction, biotinylated CpG-DNA and non-CpG-DNA, or biotinylated Pam3CysK4 and PHCK4, respectively, were loaded in running buffer (50 mM MES, 150 mM NaCl, 1 mM MgCl2 at pH 6.5) on SA chips precoated with streptavidin (Biacore AB, Uppsala, Sweden). Non-CpG-DNA or PHCK4 (Wiesmuller K H et al. (1989) Vaccine 7:29-33) served as reference for CpG-DNA and Pam3CysK4 interaction (structure or sequence in Table 1). […] TLR proteins were introduced at 200 nM or as indicated in 40 μl running buffer at a flow rate of 10 μl/min. Binding was measured at 25° C. for 750 s (delay time 300 s). […] Sensorgrams were recorded and kinetic data were calculated by the BiaCore Evaluation program (Biacore, version 3.0.1). Regeneration of the chip was performed by injection of 10 μl 50 mM NaOH, 1 M NaCl and extensive re-equilibration.
# For detailed analysis of TLR9-CpG-DNA interaction, surface plasmon resonance (SPR) biosensor based technology was used with CpG- and non-CpG-DNA immobilized onto separate flow cells of a streptavidin-coated chip. Under these settings non-CpG-DNA served as reference for specific binding (see Methods). Binding of mTLR9ect to DNA was CpG-sequence-specific and increased in a dose-dependent manner. […] Using the 1:1 binding model of the BioEvaluation software as fitting algorithm and on the basis of four different mTLR9ect concentrations ranging from 50 to 300 nM, a dissociation constant (Kd) of 200 nM was obtained with low chi-squared residuals (4,76). […] Weber AN et al. (2003) Nat. Immunol. 4:794-800. Furthermore the concentration of CpG-DNA 1668 (SEQ ID NO:1) for half-maximal activation of murine TLR9 has been recently calculated as 70 nM which correlates well with the KD obtained here. Bauer S et al. (2001) Proc. Natl. Acad. Sci. U.S.A. 98:9237-9242. […] This difference in affinity correlates with the observed species-specific variance in CpG-motif recognition, as well as activation potential. Bauer S et al. (2001) Proc. Natl. Acad. Sci. U.S.A. 98:9237-9242.
substance,measurement,setting,value
"5′-TCCATGACGTTCCTGATGCT-3′ (chemistry not given here) [CpG-DNA 1668, synthetic CpG oligodeoxynucleotide, TLR9 ligand]",response of cells with mutated full length mTLR9 to CpG-DNA (NF-κB induction),[1],did not respond
same,EC50,murine TLR9,70 nM
same,Kd,"[2]; 1:1 binding model, four mTLR9ect concentrations 50 to 300 nM, running buffer pH 6.5, 25° C., read-out: dissociation constant (Kd)",200 nM
same,Binding of mTLR9ect to DNA,"[2]; SPR, non-CpG-DNA as reference, pH 6.5",CpG-sequence-specific
same,release of bound mTLR9ect by free injected DNA,"[2]; competition, free DNA added in dissociation phase",dose dependently released bound mTLR9ect
same,TLR9 binding to CpG-DNA,[2]; pH 6.5 or 5.5,strong
same,dissociation of TLR9 from CpG-DNA,[2]; pH 6.5 or 5.5,weak dissociation
same,effect of pre-incubation of mTLR9ect with DNA on binding to chip-immobilized CpG-DNA,[2]; pre-incubation prior to SPR analysis,abolished binding
